# Laboratory results as given in ChEMBL document CHEMBL1201862, “PubChem BioAssay data set” (2004).
#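 48-hour exposure; five concentrations; linearly interpolated endpoints. GI50 = concentration required for 50% inhibition of growth.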 The source made the active and inactive calls. Cut-off read from the data, not from the text of the source: active = GI50 up to about 1.1 µM and inactive = higher. Starred links: 1 amine or outer side, 2 acyl side, 3 side chain; linkers in the order of their positions; H or OH if unused. Positions of bridges follow the written chain, without caps; N, C: chain ends. Non-standard residues stand in square brackets, D forms with d. Residues, ends and D or L forms follow the SMILES beside them. Chains are numbered I, II in the order given. ξ: configuration not given here. X42 = N=C(N)NCCC[C@H](NC(=N)CCCCCCC(=N)N[C@@H](CCCNC(=N)N)C(=O)[*:2])C(=O)[*:1]; Oic(3aξ,7aξ) = O=C(O)[C@@H]1CC2CCCCC2N1; Igl = N[C@H](C(=O)O)C1Cc2ccccc2C1; Hyp = O=C(O)[C@@H]1C[C@@H](O)CN1
# Assays:
# Assay in all cases: DTP human tumour cell line panel, 48 h
# [1] = system: M14
# [2] = system: SF-295
# [3] = system: MDA-N
# [4] = system: HOP-92
# [5] = system: HT-29
# [6] = system: SF-539
# [7] = system: PC-3
# [8] = system: A549
# [9] = system: MDA-MB-435
# [10] = system: HCT-116
# [11] = system: OVCAR-5
# [12] = system: SK-MEL-2
# [13] = system: SK-OV-3
# [14] = system: A498
# [15] = system: TK-10
# [16] = system: DU-145
# [17] = system: ACHN
# [18] = system: NCI-H522
# [19] = system: UO-31
# [20] = system: NCI-H226
SMILES,GI50 [1],GI50 [2],GI50 [3],GI50 [4],GI50 [5],GI50 [6],GI50 [7],GI50 [8],GI50 [9],GI50 [10],GI50 [11],GI50 [12],GI50 [13],GI50 [14],GI50 [15],GI50 [16],GI50 [17],GI50 [18],GI50 [19],GI50 [20]
CCC1C(C#N)=C(N)OC2=C1C(=O)CC(C)(C)C2 (configuration not stated),> 100 µM (inactive),> 100 µM (inactive),> 100 µM (inactive),> 100 µM (inactive),> 100 µM (inactive),> 100 µM (inactive),> 100 µM (inactive),> 100 µM (inactive),> 100 µM (inactive),> 100 µM (inactive),> 100 µM (inactive),> 100 µM (inactive),> 100 µM (inactive),> 100 µM (inactive),> 100 µM (inactive),> 100 µM (inactive),> 100 µM (inactive),> 100 µM (inactive),–,–
c1ccc2sc(SCCSc3nc4ccccc4s3)nc2c1,> 100 µM (inactive),> 100 µM (inactive),> 100 µM (inactive),> 100 µM (inactive),> 100 µM (inactive),–,> 100 µM (inactive),> 100 µM (inactive),> 100 µM (inactive),> 100 µM (inactive),> 100 µM (inactive),> 100 µM (inactive),> 100 µM (inactive),> 100 µM (inactive),> 100 µM (inactive),> 100 µM (inactive),> 100 µM (inactive),> 100 µM (inactive),> 100 µM (inactive),–
O=c1oc2ccccc2cc1-c1cc2ccccn2c1,> 100 µM (inactive),> 100 µM (inactive),> 100 µM (inactive),> 100 µM (inactive),> 100 µM (inactive),–,> 100 µM (inactive),> 100 µM (inactive),> 100 µM (inactive),> 100 µM (inactive),> 100 µM (inactive),> 100 µM (inactive),> 100 µM (inactive),> 100 µM (inactive),> 100 µM (inactive),> 100 µM (inactive),> 100 µM (inactive),> 100 µM (inactive),> 100 µM (inactive),> 100 µM (inactive)
CC(=O)Nc1ccc2c(C)c3c4ccccc4n(C)c3nc2n1,20.7 µM (inactive),19.9 µM (inactive),17.1 µM (inactive),–,14.8 µM (inactive),29.3 µM (inactive),18.9 µM (inactive),16 µM (inactive),18.7 µM (inactive),7.1 µM (inactive),18.6 µM (inactive),20.6 µM (inactive),–,18.1 µM (inactive),32.9 µM (inactive),21 µM (inactive),8.55 µM (inactive),16.1 µM (inactive),11.4 µM (inactive),29.6 µM (inactive)
O=C1CCC(=O)N1CNc1ccc2c(c1)Sc1ccccc1O2,27.2 µM (inactive),29.4 µM (inactive),30.2 µM (inactive),21.5 µM (inactive),23.5 µM (inactive),15.6 µM (inactive),32 µM (inactive),33 µM (inactive),31.9 µM (inactive),21.3 µM (inactive),43.9 µM (inactive),18.1 µM (inactive),–,53 µM (inactive),38 µM (inactive),32.5 µM (inactive),47 µM (inactive),23.8 µM (inactive),23.2 µM (inactive),20.4 µM (inactive)
Cn1c(CO)ccc1-c1ccc(-c2ccc[se]2)[se]1,42.9 µM (inactive),34.6 µM (inactive),15.5 µM (inactive),–,31.7 µM (inactive),17.3 µM (inactive),> 90.4 µM (inactive),17.1 µM (inactive),12.6 µM (inactive),–,–,41.1 µM (inactive),13.6 µM (inactive),0.0349 µM (active),< 0.01 µM (active),17.7 µM (inactive),72.1 µM (inactive),61.9 µM (inactive),> 87.1 µM (inactive),0.244 µM (active)
O=C(c1ccccc1)N1N=C(C(F)(F)F)CC1(O)C(F)(F)F (configuration not stated),> 100 µM (inactive),> 100 µM (inactive),> 100 µM (inactive),–,> 100 µM (inactive),> 100 µM (inactive),> 100 µM (inactive),> 100 µM (inactive),> 100 µM (inactive),> 100 µM (inactive),> 100 µM (inactive),> 100 µM (inactive),–,> 100 µM (inactive),> 100 µM (inactive),> 100 µM (inactive),> 100 µM (inactive),> 100 µM (inactive),> 100 µM (inactive),> 100 µM (inactive)
COc1cc(/C=C2\CCC(C)C3C2=NN(C(C)=O)C3c2cc(OC)c(OC)c(OC)c2)cc(OC)c1OC (configuration not stated),> 100 µM (inactive),> 100 µM (inactive),> 100 µM (inactive),> 100 µM (inactive),> 100 µM (inactive),> 100 µM (inactive),> 100 µM (inactive),> 100 µM (inactive),> 100 µM (inactive),> 100 µM (inactive),10.2 µM (inactive),–,> 100 µM (inactive),> 100 µM (inactive),> 81.1 µM (inactive),> 100 µM (inactive),25.1 µM (inactive),5.09 µM (inactive),–,> 100 µM (inactive)
OC(c1cc2ccccc2[nH]1)C1(c2cccnc2)SCCCS1 (configuration not stated),51.2 µM (inactive),68.5 µM (inactive),52.2 µM (inactive),> 100 µM (inactive),33 µM (inactive),–,38.5 µM (inactive),47.6 µM (inactive),33.6 µM (inactive),59 µM (inactive),24.1 µM (inactive),19.1 µM (inactive),> 100 µM (inactive),17.9 µM (inactive),> 100 µM (inactive),> 100 µM (inactive),86.5 µM (inactive),38.5 µM (inactive),25.2 µM (inactive),> 100 µM (inactive)
COC(=O)[C@]12CCC(=O)N1[C@H](C(=O)O)Cc1c2[nH]c2ccccc12,> 100 µM (inactive),> 100 µM (inactive),> 100 µM (inactive),> 100 µM (inactive),> 100 µM (inactive),> 100 µM (inactive),> 100 µM (inactive),> 100 µM (inactive),> 100 µM (inactive),> 100 µM (inactive),> 100 µM (inactive),> 100 µM (inactive),> 100 µM (inactive),> 100 µM (inactive),> 100 µM (inactive),> 100 µM (inactive),> 100 µM (inactive),> 100 µM (inactive),> 100 µM (inactive),–
COc1ncc(C#CC(=O)c2ccccc2)c(OC)n1,2.22 µM (inactive),16.6 µM (inactive),1.71 µM (inactive),2.15 µM (inactive),1.88 µM (inactive),–,1.89 µM (inactive),11.6 µM (inactive),3.91 µM (inactive),4.95 µM (inactive),5.04 µM (inactive),5.07 µM (inactive),19.7 µM (inactive),17.9 µM (inactive),1.67 µM (inactive),8.07 µM (inactive),1.77 µM (inactive),1.27 µM (inactive),2.03 µM (inactive),2.07 µM (inactive)
COc1cc(-c2oc(/C=N/c3ccccc3)c([N+](=O)[O-])c2-c2ccc(O)c(OC)c2)ccc1O,32.1 µM (inactive),31.6 µM (inactive),31 µM (inactive),13.8 µM (inactive),17.1 µM (inactive),17.4 µM (inactive),18.7 µM (inactive),39.2 µM (inactive),23.6 µM (inactive),18.4 µM (inactive),35.5 µM (inactive),32.9 µM (inactive),> 41.8 µM (inactive),–,18 µM (inactive),20.1 µM (inactive),16.1 µM (inactive),12.5 µM (inactive),15.1 µM (inactive),26.9 µM (inactive)
CCCCc1c(C(=O)OC(C)(C)C)cc(C#Cc2cc(C(=O)OC(C)(C)C)c(CCCC)c(C(=O)OC(C)(C)C)c2)cc1C(=O)OC(C)(C)C,> 100 µM (inactive),> 100 µM (inactive),> 100 µM (inactive),> 100 µM (inactive),–,–,> 100 µM (inactive),> 100 µM (inactive),> 100 µM (inactive),> 100 µM (inactive),> 100 µM (inactive),> 100 µM (inactive),> 100 µM (inactive),> 100 µM (inactive),> 100 µM (inactive),> 100 µM (inactive),> 100 µM (inactive),> 100 µM (inactive),> 100 µM (inactive),> 100 µM (inactive)
"N=C(N)NCCC[C@H](NC(=O)[C@@H]1CC2CCCCC2N1C(=O)[C@@H](NC(=O)[C@H](CO)NC(=O)[C@@H](NC(=O)CNC(=O)[C@@H]1CCCN1C(=O)[C@H](CCCNC(=N)N)NC(=O)[C@H](CCCNC(=N)N)NC(=N)CCCCCCC(=N)N[C@@H](CCCNC(=N)N)C(=O)N[C@@H](CCCNC(=N)N)C(=O)N1CCC[C@H]1C(=O)N1C[C@H](O)C[C@H]1C(=O)NCC(=O)N[C@H](C(=O)N[C@@H](CO)C(=O)N[C@H](C(=O)N1C2CCCCC2C[C@H]1C(=O)N[C@@H](CCCNC(=N)N)C(=O)O)C1Cc2ccccc2C1)C1Cc2ccccc2C1)C1Cc2ccccc2C1)C1Cc2ccccc2C1)C(=O)O (some centres not stated) (I: RP[Hyp]G[Igl]S[Igl][Oic(3aξ,7aξ)]R-OH / II: RPG[Igl]S[Igl][Oic(3aξ,7aξ)]R-OH; linker I:N-II:N via X42)",3.18 µM (inactive),1.86 µM (inactive),2.08 µM (inactive),2.21 µM (inactive),0.138 µM (active),2.36 µM (inactive),1.62 µM (inactive),3.08 µM (inactive),1.99 µM (inactive),4.38 µM (inactive),3.48 µM (inactive),2.33 µM (inactive),1.83 µM (inactive),–,2.76 µM (inactive),1.64 µM (inactive),1.91 µM (inactive),5.89 µM (inactive),5.43 µM (inactive),–
